Data on four compounds can be found in paper PMC11459966, “Oral pharmacokinetics and efficacy of oral phospholipid remdesivir nucleoside prodrugs against SARS-CoV-2 in mice” (Antimicrobial Agents and Chemotherapy, 2024).

Entries after “also recorded” stand apart in the source; their conditions may differ. Read-outs that look alike come from different tables or passages of the source.

A short description of data set [1]: Cell viability assay (CellTiter-Glo), A2T2-A549. The following applies: human, A2T2-A549 cells. On the technique in general: ATP-based viability assays read luminescence as a measure of living cells.
The nature of the next data set: in vivo. The note with it: male, BALB/c, mouse.
The subject of data set [2] is SARS-CoV-2 isolate USA-WA1/2020. Description: microbe, parasite or virus in culture. The note with it: for EC50: Severe acute respiratory syndrome coronavirus 2, Vero/TMPRSS2, read-out: EC50 μM ± SD; for EC90: Severe acute respiratory syndrome coronavirus 2, Vero/TMPRSS2, read-out: EC90 μM ± SD.
The test system is the same in data set [3]. Description: microbe, parasite or virus in culture. Format: cell-based. The following applies: Severe acute respiratory syndrome coronavirus 2; Calu-3 cells, 44–48 hpi.
Data set [4] is described as follows: 5-day oral tolerability study with terminal pharmacokinetics in BALB/c mice. In kind it is in vivo. The note with it: 80 mg/kg or 100 mg/kg daily PO. The method, then:
(§1) Fig 3 Oral RVn prodrugs maintain high serum levels after repeated dosing in mice and hamsters. Multiple-dose oral tolerability and pharmacokinetics in mice and Syrian hamsters: (A and B) 5-day oral tolerability study in BALB/c mice with pharmacokinetics obtained after the final dose. Male 20–22 g mice were given the indicated drugs at (A) 80 mg/kg or (B) 100 mg/kg PO daily in 0.1 M sodium carbonate/bicarbonate pH 9 for 5 days. Plasma was obtained after the last dose at 1, 3, 6, and 12 h (In Vivo Technologies, Moffatt Field, CA). (C) 7-day oral tolerability study in Syrian hamsters with pharmacokinetics obtained after the final dose. […] All plasma samples were analyzed to determine prodrug levels (Aliri Bio, Colorado Springs, CO).
After fortification, 50 µL of plasma was crashed with 400 µL of methanol containing 10 ng/mL of the internal standard (V2066). One hundred fifty microliters of the supernatant was removed and diluted with 150 µL of water in a clean 96 well injection plate.
Chromatography for the prodrugs was performed on a Raptor Biphenyl (2.1 × 50) column at a flow rate of 0.5 mL/min. A gradient method starting at 60% B (0.1% formic acid in 90:10 methanol:acetonitrile) for 30 s and then ramping to 95% B over 2.5 min. This composition was held for 1.0 min before being returned to starting conditions and re-equilibration to 40% A (10 mM ammonium formate with 0.2% formic acid in water).
Oral pharmacokinetic studies were carried out at In Vivo Technologies (Moffatt Field, CA) in male BALB/c mice, 22–23 g under IACUC protocol number IVT-11–010Y12 (LifeSource Animal Care and Use Committee). […] Blood was obtained by facial vein or terminal cardiac puncture at the indicated times and plasma was frozen for analysis. Similar procedures were followed for 5-day tolerability and terminal dose pharmacokinetic studies in mice at oral daily doses of 80 or 100 mg/kg.

Another data set concerns Calu-3 cells. Also noted: method as in PMID 37040439. The note with it: Calu-3, CellTiter-Glo, previously published, identical conditions ref 7; cited from earlier work.
Data set [5] concerns SARS-CoV-2 isolate USA-WA1/2020. The data set is described as follows: microbe, parasite or virus in culture. The note with it: for EC50: Severe acute respiratory syndrome coronavirus 2, read-out: EC50 μM ± SD; for EC90: Severe acute respiratory syndrome coronavirus 2, read-out: EC90 μM ± SD.
The nature of data set [6]: Single dose PO or IV plasma pharmacokinetics and tolerability in BALB/c mice. The note with it: for AUC / Cmax: male, BALB/c, mouse, in vivo.
Data set [7] has as its system SARS-CoV-2 isolate USA-WA1/2020. Also noted: method as in PMID 37040439. The note with it: Calu-3, dotted lines of Fig. 2 and 3 ref 7; read-out: in vitro EC90 for SARS-CoV-2 infection in Calu-3 cells; cited from earlier work.
Data set [8] in a line: 7-day oral tolerability study with terminal pharmacokinetics in Syrian hamsters. Format: in vivo. The following applies: 100 mg/kg PO daily, 7 days. The method, then:
as §1
A 7-day oral tolerability and terminal pharmacokinetic study in 100–125 g male Syrian hamsters were done at Attentive Sciences (Stillwell, KS), under IACUC approval number 1123–6788. […] Daily clinical observation and weights were obtained. After the day 7 oral dose blood was obtained at the indicated times and plasma was frozen for analysis.

Data set [9] in a line: Cell viability assay (CellTiter-Glo), Vero-TMPRSS2. Format: cell-based, African green monkey. The note with it: African green monkey, Vero-TMPRSS2 cells, 48 h incubation. The procedure: Cell viability assays (Table 1) were performed as previously described ([7]). Cells were cultured and seeded as per in vitro antiviral studies in opaque walled 96-well cell culture plates and incubated overnight for Huh7.5, A2T2-A549, and Vero-E6-TMPRSS2 cells and for 2 days for Calu-3 cells. Compounds or controls were added at the indicated concentrations in a total volume of 100 µL, and cells were incubated for 48 h. An equal volume of CellTiter-Glo reagent (Promega, Cat. #G7570) or CellTiter-Glo 2.0 reagent (Promega, Cat. #G9241) was added and mixed, and luminescence was recorded on a Veritas Microplate Luminometer (Turner BioSystems) or a Spark Multimode plate reader (Tecan) according to manufacturer instructions. Percent viability was normalized to DMSO controls, and CC50 values were derived from best fit curves calculated in Prism 10.

The subject of data set [10] is SARS-CoV-2 isolate USA-WA1/2020. Description: microbe, parasite or virus in culture. The following applies: for EC50: Severe acute respiratory syndrome coronavirus 2, Huh7.5, read-out: EC50 μM ± SD; for EC90: Severe acute respiratory syndrome coronavirus 2, Huh7.5, read-out: EC90 μM ± SD.
Data set [11] has the same test system. The following applies: Vero-TMPRSS2.
Data set [12] shares this test system. The following applies: A2T2-A549.
The nature of data set [13]: Cell viability assay (CellTiter-Glo), Calu-3. The note with it: human, Calu-3 cells.
Data set [14] can be described thus: Cell viability assay (CellTiter-Glo), Huh7.5. The following applies: human, Huh7.5 cells.
Details of data set [15]: method as in PMID 38776389. The note with it: twice daily oral 30 mg/kg doses, BALB/c mice ref 10; cited from earlier work.
Details of data set [16]: method as in PMID 34937145. The following applies: early administration, non-hospitalized high-risk individuals ref 5; cited from earlier work.

`CCCCCCCCCCCCCCCCCCOC[C@H](COP(=O)(O)OC[C@H]1O[C@@](C#N)(c2ccc3c(N)ncnn23)[C@H](O)[C@@H]1O)OCc1ccccc1` [Compound V2043, 1-O-octadecyl-2-O-benzyl-sn-glyceryl-P-RVn]: the CC50 (usually the concentration at which the toxic effect on the cells reaches its halfway point) at 48 h in data set [1] is > 100000 nM; in data set [9], 82600 nM. Moreover, the half-life (usually the time needed for the level to fall by half in the phase considered) is 0.7 h in “in vivo” (iv, 7 mg/kg); 4.46 h in the data set “in vivo” (po, 20 mg/kg); 6.31 h in the data set “in vivo” (po, 60 mg/kg); 7.06 h in “in vivo” (po, 180 mg/kg). Further, the CL/F (in general, clearance divided by bioavailability, as obtained after extravascular dosing) was 4.35 mL/min/kg in the data set “in vivo” (po, 20 mg/kg); 5.57 mL/min/kg in the data set “in vivo” (po, 60 mg/kg); 14.1 mL/min/kg in the data set “in vivo” (po, 180 mg/kg). The Vd/F (in general, the volume of distribution divided by bioavailability) in “in vivo” (po, 20 mg/kg) was found to be 1.68 L/kg; in the data set “in vivo” (po, 60 mg/kg) it was 3.04 L/kg; in the data set “in vivo” (po, 180 mg/kg), 8.61 L/kg. Also, the EC50 (usually the midpoint of the concentration-response curve) was determined as 0.104 ± 0.03 µM in [2], 0.168 ± 0.074 µM in data set [3], 0.566 ± 0.028 µM in data set [5] and 0.117 ± 0.009 µM in [10]. For the same compound, the EC90 (usually the concentration needed for an effect of 90%) in data set [2] is 0.248 ± 0.052 µM; in [3], 0.484 ± 0.142 µM; in [5], 1.62 ± 0.227 µM; in data set [7], 320 nM; in data set [10], 0.293 ± 0.042 µM. Further, in data set [4], the “tolerability of once-daily oral doses for 5 days” value was “no adverse clinical effects were noted”. Further, the CC50 in the data set on Calu-3 cells is 58300 nM. Further, the “tolerability of single escalating oral doses” value in data set [6] (20, 60 or 180 mg/kg single oral dose, BALB/c mice) is listed as “well tolerated with no appreciable adverse effects”. In addition, the AUC (in general, concentration integrated over time) in [6] (iv, 7 mg/kg) stood at 46.6 µM·h; in data set [6] (po, 20 mg/kg), 90.1 µM·h; in data set [6] (po, 60 mg/kg), 199 µM·h; in data set [6] (po, 180 mg/kg), 211 µM·h. The Cmax – broadly, the highest concentration seen after dosing – in data set [6] (iv, 7 mg/kg) is 96.6 µM; in data set [6] (po, 20 mg/kg), 10.6 µM; in [6] (po, 60 mg/kg), 20.3 µM; in data set [6] (po, 180 mg/kg) it was 17 µM. The “tolerability of seven-day once-daily oral dosing” value in [8] is “well tolerated without any appreciable toxicity; also recorded: No ill effects were reported”.

`N#C[C@@]1(c2ccc3c(N)ncnn23)O[C@H](CO)[C@@H](O)[C@H]1O` [RVn, reference compound]: the “SI (CC50/EC50)” value in data set [11] is >92; in [12], >33. In addition, the CC50 at 48 h in data set [1], in [13], in [14] and in data set [9] was > 100000 nM in each case. Further, the EC50 in data set [2] was 1.08 ± 0.264 µM; in data set [3], 0.665 ± 0.284 µM; in data set [5], 3.01 ± 0.038 µM; in data set [10], 1.36 ± 0.544 µM. The EC90 in data set [2] was 2.43 ± 0.692 µM; in data set [3], 1.89 ± 0.497 µM; in data set [5], 4.49 ± 0.256 µM; in data set [10], 2.96 ± 0.866 µM.

Turning to `CC(C)C(=O)OC[C@H]1O[C@@](C#N)(c2ccc3c(N)ncnn23)[C@H](O)[C@@H]1O` [Obeldesivir GS-5245, reference compound], the daily systemic exposure in data set [15] is 108 µM·h. In addition, in [5], the EC50 amounted to 1.2 ± 0.084 µM and the EC90 stood at 1.89 ± 0.46 µM.

On to `CCC(CC)COC(=O)[C@H](C)N[P@](=O)(OC[C@H]1O[C@@](C#N)(c2ccc3c(N)ncnn23)[C@H](O)[C@@H]1O)Oc1ccccc1` [remdesivir], for which the “decrease of the risk of hospitalization or death” value in data set [16] was 87%.
